We go through 5 compounds from patent US8277824B2, “Solubilization of cyclohexane-based carboxamide derivatives for use as sensates in consumer products” (The Procter & Gamble Company, priority 2008, dated 2012).

Where two headings read alike, the source gives them in different places. Bounds are passed on as bounds.

For series [1] the following is noted: concentration level where the cooling effect could be clearly recognized; Emberger and Hopp 1987; cited from earlier work.
Series [2] is described as follows: Experimental solubility limit of G-180 in liquid solvents (visual clarity). Format: physicochemical. Conditions: 25° C. How it is done: The solubility of G-180 in various solvents was determined as follows. Aliquot one to twenty grams of a target solvent into a vial or flask. Weigh out G-180 to provide a concentration of 25%. […] Visually inspect for clarity. If the solution is not completely clear, add solvent, calculate new concentration of G-180 and repeat the solubilization energy and check for clarity. Once a level of clarity is achieved, repeat the process but increase the G-180 concentration by 10% until clarity is diminished. Once these cross points of clarity are achieved, this is reported as the experimental solubility limit of G-180 in the respective solvent.

For series [3] the following is noted: demonstrated in commonly assigned U.S. Application No. 61/003,863; cited from earlier work.
The next series is described as follows: Cooling effect (sensory). Format: in vivo. Conditions: neoisomer prepared in Procter & Gamble laboratories. From the text: Many of the compounds above including menthol have relatively low potency and the duration of the cooling effect is typically short-lived. Thus, it is necessary to include fairly high levels of such compounds when formulating products, which increases cost. In addition, many of these compounds are relatively high cost ingredients since they are expensive to manufacture on an industrial scale. Therefore, compounds with high potency and long lasting cooling effect are highly sought that will require only small amounts for incorporation in a variety of consumer products to provide high impact and long-lasting effect. Such potent and long lasting coolant compounds have recently been described for example in WO 2005/049553A1 to Givaudan including ρ-menthane carboxamides substituted at the amide N-position with an aryl moiety bearing certain substituents. Examples include N-(4-cyanomethylphenyl)-ρ-menthanecarboxamide; N-(4-sulfamoylphenyl)-ρ-menthanecarboxamide; N-(4-cyanophenyl)-ρ-menthanecarboxamide; N-(4-acetylphenyl)-ρ-menthanecarboxamide, N-(4-hydroxymethylphenyl)-ρ-menthanecarboxamide and N-(3-hydroxy-4-methoxyphenyl)-ρ-menthanecarboxamide. […]

Regarding `CC(C)[C@H]1CC[C@H](C)C[C@H]1O` [l-neomenthol], in series [1], the cooling threshold entry is “about 3,000 ppb”.
With `CC(C)[C@@H]1CC[C@@H](C)C[C@@H]1O` [d-neomenthol], the cooling threshold entry in series [1] is recorded as “about 25,000 ppb”.
`CC(C)[C@@H]1CC[C@@H](C)C[C@H]1O` [L-menthol]: in series [1], the cooling threshold result is on record as “about 800 ppb”.
`CC(C)[C@@H]1CC[C@@H](C)C[C@H]1C(=O)Nc1ccc(CC#N)cc1` [G180, N-[4-(cyanomethyl)phenyl]-(1R,2S,5R)-2-isopropyl-5-methylcyclohexanecarboxamide]: the “G180 Experimental % Solubility” value in series [2] (solvent 2,3-dimethyl Pyrazine) is listed as 20.4%; in series [2] (solvent 2,5-dimethyl Pyrazine), 20.0%; in series [2] (solvent Benzaldehyde), 16.7%; in series [2] (solvent Benzyl Salicylate), 14.7%; in series [2] (solvent Benzyl alcohol), 21.2%; in series [2] (solvent Cuminylaldehyde), 20.0%. Also, the “G180 Experimental % Solubility” value in series [2] (solvent Isoamyl propionate) is reported as 13.2%; in series [2] (solvent Menthone) it was 15.4%; in series [2] (solvent Neryl acetate), 7.4%; in series [2] (solvent Para-Tolualdehyde), 15.9%; in series [2] (solvent Triacetin), 4.4%; in series [2] (solvent Water), less than 0.1%. Besides, in series [2] (solvent α-Amyl Cinnamic Aldehyde), the “G180 Experimental % Solubility” value came out at 12.1%. Besides, the cooling effect entry in series [3] was “intense and long-lasting cooling effect”.
Consider `CC(C)[C@@H]1CC[C@@H](C)C[C@@H]1C(=O)Nc1ccc(CC#N)cc1` [neoisomer, N-[4-(cyanomethyl)phenyl]-(1S,2S,5R)-2-isopropyl-5-methylcyclohexanecarboxamide], for which the cooling effect result in the series “Cooling effect (sensory)” was “potent and long-lasting cooling effect”.
